Tests used:
neutrophils [1] = conditions: report; cited from earlier work
[2] = report; cited from earlier work
neutrophils [3] = assay: Neutrophil apoptosis/survival by phosphatidylserine externalization after annexin-V and 7-AAD labeling; type: cell-based, human; conditions: 15 h at 37° C.; anti-Fas mAb 10 ng/ml, gliotoxin 2 mg/ml
Experimental: Analysis of apoptosis. Neutrophil apoptosis was triggered by incubating neutrophils at 37° C. alone (constitutive apoptosis) or with anti-Fas mAb (10 ng/ml; Beckman-Coulter) or gliotoxin ([…]; Sigma) (Ward et al. 1999, J. Biol. Chem. 274:4309-4318) for the indicated times. Neutrophil apoptosis was evaluated by phosphatidylserine externalization after annexin-V and 7-AAD labeling (Kantari et al. 2007, Blood 110:4086-4095); mitochondrial depolarization after DiOC6 labeling (Moriceau et al. 2009, J. Immuno1.182:7254-7263); caspase-3 and caspase-8 activities measured by spectrophotometry (Biovision) in neutrophil lysates. In DMF-differentiated-PLB985 cells, apoptosis was triggered by gliotoxin or by rTRAIL (10 ng/ml; RD System) (Yin et al. 2005, Int. J. Biochem. Cell Biol. 37:1696-1708) and caspase-8 and caspase-9 activities were determined after gating on CD11b^+ cells using the Caspase-Glow® assay (Promega). Apoptosis-induced chromatin condensation and DNA fragmentation were assessed, respectively, after DNA staining with the blue fluorescent dye Hoechst (5 mg/ml) and propidium-iodide staining (Goepel et al. 2004, J. Leukoc. Biol. 75:836-843). Carboxyp21 ([…], SEQ ID NO: 24) corresponding to the p21 carboxy-terminus sequence (residues 141-160) and containing a RYIRS carboxy-terminal extension to facilitate its cell entry was synthesized and purified (Genecust). A modified peptide in which the charged amino acids responsible for its binding to PCNA have been changed according to dynamic simulation studies ([…], SEQ ID NO: 25) served as control. The effect of PS-341 (LC Laboratories) and MG132 were tested on neutrophil apoptosis and PCNA expression as indicated.

BM neutrophils = assay: Apoptosis of BM-isolated mouse neutrophils by annexin-V labelling; type: cell-based; conditions: increasing gliotoxin concentrations
Experimental: In vivo model of LPS-induced airway inflammation. Peripheral blood neutrophils and BM mature neutrophils from femurs were isolated using Percoll density gradient, as described in Mocsai et al. (2002, Immunity 16:547-558). Intranasal LPS administration in mice and collection of cells from BALF was performed as described in Chignard et al. (2000, Am. J. Physiol. Lung Cell Mol. Physiol. 279:L1083-1090). Mice were treated in accordance with Inserm guidelines in compliance with European animal-welfare regulations. Seven-week-old male C57B1/6 mice, weighing 25-30 g (Charles Rivers), were anesthetized by intra-muscular injection of a mixture of ketamine and xylasine, and then 330 μg/kg of LPS dissolved in 50 μl of saline were deposited intranasally. At different times, animals were killed by an intraperitoneal injection of a lethal dose of sodium pentobarbital (Sanofi) to isolate lung neutrophils. The trachea of each mouse was then cannulated and BAL performed with a syringe and multiple cycles of saline instillation (0.5 ml) and aspiration to obtain a BALF volume of 4 ml. The latter was centrifuged, pelleted cells were collected and differential cell counts made after cytospin centrifugation and staining with Diff-Quik products. BAL neutrophils were isolated by Ficoll density gradient centrifugation. […]

In the case of `CC[C@H](CO)Nc1nc(NCc2ccccc2)c2ncn(C(C)C)c2n1` [roscovitine], the Neutrophil apoptosis (neutrophils [1]) is listed as “triggers neutrophil apoptosis” and the “Inflammation resolution in vivo” value [2] is listed as “promotes inflammation resolution in vivo”.
In the case of `CN1C(=O)[C@]23CC4=CC=C[C@H](O)[C@H]4N2C(=O)[C@@]1(CO)SS3` [gliotoxin, reference compound], the “Increase of annexin-V+ 7-AAD− cells” value (neutrophils [3]) is reported as “further enhanced” and the “Apoptosis of BM neutrophils by annexin-V labelling” value (BM neutrophils) is reported as “trigger apoptosis in BM neutrophils in a dose-dependent manner”.

Source: patent US20130059773A1, “COMPOUNDS FOR THE TREATMENT OF INFLAMMATION AND NEUTROPENIA” (priority 2010, published 2013)
